In patent US20260184669A1, “LIPID COMPOUND AND COMPOSITION FOR DELIVERY OF ACTIVE SUBSTANCE” (KOREA RESEARCH INSTIUTE OF BIOSCIENCE AND BIOTECHNOLOGY, priority 2022, published 2026):

Tests used:
[1] = tested on: CCL3 mRNA level in HEK-293T cells; details: human
[2] = tested on: CCL2 mRNA level in HEK-293T cells; details: human
[3] = Stability of mRNA-LNPs according to storage temperature and duration; format: physicochemical; details: for Normalized EE % D-1 / Size (nm) D-1 / PDI D-1: day 1; for Normalized EE % D-7 / PDI D-7 / Size (nm) D-7: day 7; for Normalized EE % D-30 / PDI D-30 / Size (nm) D-30: day 30
Description: Stability of fLuc mRNA-LNPs produced using various ionizable lipids according to the method of Example 27, was assessed by storing the LNPs at 4° C. and 25° C. At 1, 7, and 30 days post-manufacture, the size, PDI, and encapsulation efficiency (EE) of each mRNA-LNPs samples were measured using the methods described in Experimental Examples 2 and 3.

[4] = tested on: IL-6 mRNA level in HEK-293T cells; details: human
[5] = Size, polydispersity index and surface charge of mRNA-LNP (Malvern Zetasizer Nano ZS90); format: physicochemical; details: for PDI / size (nm) Number: mRNA-LNP made with the ionizable lipid at its optimal formulation (Table 2); for size (nm) Number: diluted with PBS to 1 μg/mL mRNA; for Zeta (mV): surface charge of mRNA-LNP made with the ionizable lipid at its optimal formulation (Table 2)
Procedure, shortened: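 Dynamic/electrophoretic light scattering of LNPs diluted in PBS to a final mRNA concentration of 1 μg/mL. Readouts were particle size, PDI and surface charge.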

female C57BL/6 mice = experiment: Protein expression efficiency of fLuc mRNA-LNPs after intramuscular injection (IVIS whole-body luminescence); format: in vivo; details: for Total flux 1 hour / Total flux 3 hours / Total flux 6 hours / Total flux 48 hours / Total flux 72 hours / Total flux: fLuc mRNA-LNP, intramuscular injection, luminescence at injection site, mice; for Total flux 1 hour: 1 hour after administration; for Total flux 3 hours: 3 hours after administration; for Total flux 6 hours: 6 hours after administration; for Total flux 48 hours: 48 hours after administration; for Total flux 72 hours: 72 hours after administration; for Total flux: after administration; for Fold increase in total flux at 3 h, MC3: relative to control LNP formulated with MC3; for Fold increase in total flux at 3 h, MC3 / Fold increase in total flux at 3 h, SM-102: 3 hours after intramuscular injection; for Fold increase in total flux at 3 h, SM-102: relative to control LNP formulated with SM-102
Procedure, shortened: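 Female C57BL/6 mice (6-10 weeks, n≥4) got intramuscular fLuc mRNA-LNPs at 0.1-0.5 mg/kg mRNA. Injection-site luminescence was imaged under isoflurane at 1-72 h, 10 min after i.p. D-luciferin (200 μL, 15 mg/mL). Expression at 3 h was taken relative to MC3 or SM-102 LNPs.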

[6] = tested on: IL-1β mRNA level in HEK-293T cells; details: human
[7] = mRNA encapsulation efficiency (Quant-IT RiboGreen RNA assay); format: physicochemical; details: mRNA encapsulation efficiency of mRNA-LNP made with the ionizable lipid; average of two measurements
Procedure, shortened: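 LNP samples read with RiboGreen reagent in TE buffer with or without 2% Triton X-100 (37 °C, 10 min) to release encapsulated mRNA. Fluorescence at λex 480/λem 520 nm; EE % calculated from the two readings, averaged over two independent measurements.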

CCCCCCCCCCCOC(=O)CCCCCN(CCCCCCCC(=O)OC(CCCCCCCC)CCCCCCCC)CC(O)CCCCNC(=O)c1c(O)ccn1C (stereo not drawn) [Compound 24, Heptadecan-9-yl 8-((2-hydroxy-6-(3-hydroxy-1-methyl-1H-pyrrole-2-carboxamido)hexyl)(6-oxo-6-(undecyloxy)hexyl)amino)octanoate]
CCL3 Average [1]: 1.36 | CCL2 Average [2]: 0.96 | Normalized EE % D-1 ([3]; fLuc mRNA-LNP stored at 4° C.): 89.7% | Size (nm) D-1 ([3]; fLuc mRNA-LNP stored at 4° C.): 136.9 nm | Normalized EE % D-7 ([3]; fLuc mRNA-LNP stored at 4° C.): 90.5% | PDI D-7 ([3]; fLuc mRNA-LNP stored at 4° C.): 0.114 | Size (nm) D-7 ([3]; fLuc mRNA-LNP stored at 4° C.): 123.7 nm | Normalized EE % D-1 ([3]; fLuc mRNA-LNP stored at 25° C.): 89.7% | PDI D-1 ([3]; fLuc mRNA-LNP stored at 25° C.): 0.114 | Size (nm) D-1 ([3]; fLuc mRNA-LNP stored at 25° C.): 136.9 nm | Normalized EE % D-7 ([3]; fLuc mRNA-LNP stored at 25° C.): 89.6% | PDI D-7 ([3]; fLuc mRNA-LNP stored at 25° C.): 0.163 | Size (nm) D-7 ([3]; fLuc mRNA-LNP stored at 25° C.): 113.5 nm | IL-6 Average [4]: 0.87 | PDI [5]: 0.114 | size (nm) Number [5]: 137 nm | Zeta (mV) [5]: −7.89 mV | Total flux 1 hour (female C57BL/6 mice): 6.70E+06 | Total flux 3 hours (female C57BL/6 mice): 3.49E+07 | Total flux 6 hours (female C57BL/6 mice): 4.45E+07 | Total flux 48 hours (female C57BL/6 mice): 3.86E+06 | Total flux 72 hours (female C57BL/6 mice): 3.66E+06 | Total flux (female C57BL/6 mice): 7.85E+06 | Fold increase in total flux at 3 h, MC3 (female C57BL/6 mice): 2.82 | Fold increase in total flux at 3 h, SM-102 (female C57BL/6 mice): 0.31 | IL-1β Average [6]: 0.99 | EE (%) [7]: 90%

CCCCCCCCCCCOC(=O)CCCCCN(CCCCCCCC(=O)OC(CCCCCCCC)CCCCCCCC)CC(O)CCCCNC(=O)c1c[nH]c(O)n1 (stereo not drawn) [Compound 35, Heptadecan-9-yl 8-((2-hydroxy-6-(2-hydroxy-1H-imidazole-4-carboxamido)hexyl)(6-oxo-6-(undecyloxy)hexyl)amino)octanoate]
CCL3 Average [1]: 2.30 | CCL2 Average [2]: 1.42 | Normalized EE % D-1 ([3]; fLuc mRNA-LNP stored at 4° C.): 90.2% | Size (nm) D-1 ([3]; fLuc mRNA-LNP stored at 4° C.): 123.4 nm | Normalized EE % D-7 ([3]; fLuc mRNA-LNP stored at 4° C.): 83.7% | PDI D-7 ([3]; fLuc mRNA-LNP stored at 4° C.): 0.089 | Size (nm) D-7 ([3]; fLuc mRNA-LNP stored at 4° C.): 130.3 nm | Normalized EE % D-30 ([3]; fLuc mRNA-LNP stored at 4° C.): 88.6% | PDI D-30 ([3]; fLuc mRNA-LNP stored at 4° C.): 0.127 | Size (nm) D-30 ([3]; fLuc mRNA-LNP stored at 4° C.): 141.3 nm | Normalized EE % D-1 ([3]; fLuc mRNA-LNP stored at 25° C.): 90.2% | PDI D-1 ([3]; fLuc mRNA-LNP stored at 25° C.): 0.040 | Size (nm) D-1 ([3]; fLuc mRNA-LNP stored at 25° C.): 123.4 nm | Normalized EE % D-7 ([3]; fLuc mRNA-LNP stored at 25° C.): 85.3% | PDI D-7 ([3]; fLuc mRNA-LNP stored at 25° C.): 0.098 | Size (nm) D-7 ([3]; fLuc mRNA-LNP stored at 25° C.): 133.3 nm | Normalized EE % D-30 ([3]; fLuc mRNA-LNP stored at 25° C.): 88.3% | PDI D-30 ([3]; fLuc mRNA-LNP stored at 25° C.): 0.076 | Size (nm) D-30 ([3]; fLuc mRNA-LNP stored at 25° C.): 123.8 nm | IL-6 Average [4]: 1.14 | PDI [5]: 0.040 | size (nm) Number [5]: 123 nm | Zeta (mV) [5]: −3.90 mV | Total flux 1 hour (female C57BL/6 mice): 1.54E+07 | Total flux 3 hours (female C57BL/6 mice): 4.49E+07 | Total flux 6 hours (female C57BL/6 mice): 5.04E+07 | Total flux 48 hours (female C57BL/6 mice): 7.96E+05 | Total flux 72 hours (female C57BL/6 mice): 1.27E+06 | Total flux (female C57BL/6 mice): 6.12E+06 | Fold increase in total flux at 3 h, MC3 (female C57BL/6 mice): 3.64 | Fold increase in total flux at 3 h, SM-102 (female C57BL/6 mice): 0.40 | IL-1β Average [6]: 0.91 | EE (%) [7]: 90%

CCCCCCCCCCCOC(=O)CCCCCN(CCCCCCCC(=O)OC(CCCCCCCC)CCCCCCCC)CC(O)CCCCNC(=O)c1nccn1C (stereo not drawn) [Compound 36, Heptadecan-9-yl 8-((2-hydroxy-6-(1-methyl-1H-imidazole-2-carboxamido)hexyl)(6-oxo-6-(undecyloxy)hexyl)amino)octanoate]
CCL3 Average [1]: 2.40 | CCL2 Average [2]: 1.86 | Normalized EE % D-1 ([3]; fLuc mRNA-LNP stored at 4° C.): 87.2% | Size (nm) D-1 ([3]; fLuc mRNA-LNP stored at 4° C.): 111.9 nm | Normalized EE % D-7 ([3]; fLuc mRNA-LNP stored at 4° C.): 89.1% | PDI D-7 ([3]; fLuc mRNA-LNP stored at 4° C.): 0.146 | Size (nm) D-7 ([3]; fLuc mRNA-LNP stored at 4° C.): 114.4 nm | Normalized EE % D-30 ([3]; fLuc mRNA-LNP stored at 4° C.): 86.6% | PDI D-30 ([3]; fLuc mRNA-LNP stored at 4° C.): 0.076 | Size (nm) D-30 ([3]; fLuc mRNA-LNP stored at 4° C.): 120.9 nm | Normalized EE % D-1 ([3]; fLuc mRNA-LNP stored at 25° C.): 87.2% | PDI D-1 ([3]; fLuc mRNA-LNP stored at 25° C.): 0.073 | Size (nm) D-1 ([3]; fLuc mRNA-LNP stored at 25° C.): 111.9 nm | Normalized EE % D-7 ([3]; fLuc mRNA-LNP stored at 25° C.): 89.0% | PDI D-7 ([3]; fLuc mRNA-LNP stored at 25° C.): 0.123 | Size (nm) D-7 ([3]; fLuc mRNA-LNP stored at 25° C.): 110.6 nm | Normalized EE % D-30 ([3]; fLuc mRNA-LNP stored at 25° C.): 83.8% | PDI D-30 ([3]; fLuc mRNA-LNP stored at 25° C.): 0.092 | Size (nm) D-30 ([3]; fLuc mRNA-LNP stored at 25° C.): 119.2 nm | IL-6 Average [4]: 1.30 | PDI [5]: 0.073 | size (nm) Number [5]: 112 nm | Zeta (mV) [5]: −3.19 mV | Total flux 1 hour (female C57BL/6 mice): 1.62E+07 | Total flux 3 hours (female C57BL/6 mice): 4.51E+07 | Total flux 6 hours (female C57BL/6 mice): 3.18E+07 | Total flux 48 hours (female C57BL/6 mice): 3.79E+06 | Total flux 72 hours (female C57BL/6 mice): 3.09E+06 | Total flux (female C57BL/6 mice): 1.03E+07 | Fold increase in total flux at 3 h, MC3 (female C57BL/6 mice): 3.65 | Fold increase in total flux at 3 h, SM-102 (female C57BL/6 mice): 0.40 | IL-1β Average [6]: 0.96 | EE (%) [7]: 87%
